Data reported in US7371364B2, “Cyclic peptide and imaging compound compositions and uses for targeted imaging and therapy” (Board of Regents, The University of Texas System, priority 2003, dated 2008).
Residues, ends and D or L forms follow the SMILES beside them.

Legend:
[1] = system: integrin-positive M21 melanoma; assay: In vivo NIR imaging of human melanoma xenograft, integrin-positive; parameters: species or system mice; conditions: M21 melanoma, 24 hr after i.v. injection, 3 nmol/mouse
Source text: In vivo fluorescence imaging was accomplished by illuminating the animal with light from a laser diode (35 mW) expanded to an approximate 8 cm diameter circular area. The fluorescent light re-emitted from the animal was collected by an image intensifier (model FS9910C, ITT Night Vision, Roanoke, Va.) lens-coupled to a CCD camera (model CH350, Photometrics, Tucson, Ariz.). The imaging was designed so that the field of view could be varied from 3×3 cm to over 12×12 cm by varying the image distance of the 50 mm lens used to focus the image onto the photocathode of the intensifier. The lens was fitted with a holographic notch-plus filter (660 nm center wavelength; Kaiser Optical Systems, Inc., Ann Arbor, Mich.) and a bandpass filter (710 nm center wavelength) to reject back-scattered and reflected excitation photons. Image acquisition was accomplished using V++ software (Digital Optics, Auckland, New Zealand) and the obtained images were stored in uncompressed tagged image file format (tiff). Data processing and analysis were accomplished using Matlab software (The MathWorks, Inc., Natick, Mass.). For all imaging sessions, the image acquisition parameters were kept constant, and each image required 800 ms of camera integration.

[2] = Stability assay in serum-containing culture medium (HPLC); format: in vitro ADME; conditions: 25° C.; for Degradation in culture medium: 3 hours
Protocol: Each test peptide was incubated in a serum-containing culture medium (Dulbecco's Modified Eagle's Medium/Nutrient Mixture F-12 Ham and 10% FBS) (1 mg/ml) at 25° C. At various time intervals, aliquots of peptide solution (50 μL) were withdrawn and subjected to HPLC analysis. The percentage of remaining intact peptide was recorded as a function of time.

[3] = biological target: αvβ3 integrin (on KS1767 cells) (UniProt P06756); assay: cell-based or functional assay
αvβ3 integrin (on KS1767 cells), sequence (P06756 31-1048, chain 1 of 2): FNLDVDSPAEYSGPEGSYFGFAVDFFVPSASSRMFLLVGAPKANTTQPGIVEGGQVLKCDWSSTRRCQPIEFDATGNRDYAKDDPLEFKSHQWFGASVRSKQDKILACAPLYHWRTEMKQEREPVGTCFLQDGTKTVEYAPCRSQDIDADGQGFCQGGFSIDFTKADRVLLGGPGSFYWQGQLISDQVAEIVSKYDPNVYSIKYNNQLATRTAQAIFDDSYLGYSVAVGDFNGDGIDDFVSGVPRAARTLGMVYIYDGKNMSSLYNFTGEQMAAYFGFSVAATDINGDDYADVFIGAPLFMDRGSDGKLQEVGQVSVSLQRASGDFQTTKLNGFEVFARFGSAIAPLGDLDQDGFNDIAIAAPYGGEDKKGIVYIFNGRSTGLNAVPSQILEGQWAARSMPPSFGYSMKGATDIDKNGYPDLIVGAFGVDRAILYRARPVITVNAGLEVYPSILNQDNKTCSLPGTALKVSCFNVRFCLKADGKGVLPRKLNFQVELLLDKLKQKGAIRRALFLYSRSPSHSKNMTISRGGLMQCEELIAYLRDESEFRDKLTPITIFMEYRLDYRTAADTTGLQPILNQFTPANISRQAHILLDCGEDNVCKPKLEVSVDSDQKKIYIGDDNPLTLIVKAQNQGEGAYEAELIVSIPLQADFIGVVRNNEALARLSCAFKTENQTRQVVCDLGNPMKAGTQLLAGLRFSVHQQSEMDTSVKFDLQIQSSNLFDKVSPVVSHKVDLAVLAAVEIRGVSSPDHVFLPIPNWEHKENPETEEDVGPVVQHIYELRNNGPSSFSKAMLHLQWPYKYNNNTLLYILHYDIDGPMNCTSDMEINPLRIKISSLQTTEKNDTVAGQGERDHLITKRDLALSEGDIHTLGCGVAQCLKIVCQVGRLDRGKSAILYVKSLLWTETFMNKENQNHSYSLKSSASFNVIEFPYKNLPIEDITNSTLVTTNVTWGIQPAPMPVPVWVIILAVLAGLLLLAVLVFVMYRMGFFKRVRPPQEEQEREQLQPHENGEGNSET
αvβ3 integrin (on KS1767 cells), sequence (P05106 27-788, chain 2 of 2, further chain): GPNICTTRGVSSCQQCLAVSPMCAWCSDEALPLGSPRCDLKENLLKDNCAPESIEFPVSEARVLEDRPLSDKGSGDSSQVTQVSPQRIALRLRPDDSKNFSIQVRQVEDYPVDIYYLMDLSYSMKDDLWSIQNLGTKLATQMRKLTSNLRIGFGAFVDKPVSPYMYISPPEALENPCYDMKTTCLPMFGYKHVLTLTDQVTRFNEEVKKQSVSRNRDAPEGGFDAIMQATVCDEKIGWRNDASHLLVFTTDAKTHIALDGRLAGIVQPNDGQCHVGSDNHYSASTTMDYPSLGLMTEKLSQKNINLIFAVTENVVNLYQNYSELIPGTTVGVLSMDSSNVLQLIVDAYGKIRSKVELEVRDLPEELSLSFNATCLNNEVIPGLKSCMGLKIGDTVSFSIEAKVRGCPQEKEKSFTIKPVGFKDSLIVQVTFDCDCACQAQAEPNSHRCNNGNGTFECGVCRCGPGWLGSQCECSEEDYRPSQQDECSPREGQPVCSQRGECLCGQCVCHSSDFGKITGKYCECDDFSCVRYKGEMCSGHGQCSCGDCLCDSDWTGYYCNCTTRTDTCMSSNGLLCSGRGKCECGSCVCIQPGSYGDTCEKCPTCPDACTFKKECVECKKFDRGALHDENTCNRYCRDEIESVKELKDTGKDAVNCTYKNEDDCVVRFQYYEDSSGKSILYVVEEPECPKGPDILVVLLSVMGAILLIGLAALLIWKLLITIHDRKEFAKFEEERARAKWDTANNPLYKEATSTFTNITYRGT

Compound	Degradation in culture medium [2]	IC50 of inhibition of adhesion of KS1767 cells to vitronectin-coated microplate wells [3] [nM]	other results
CC1(C)C(/C=C/C2=C(Oc3ccc(S(=O)(=O)O)cc3)C(=C/C=C3/N(CCCCS(=O)(=O)O)c4ccc(S(=O)(=O)[O-])cc4C3(C)C)/CCC2)=[N+](CCCCCC(=O)O)c2ccc(S(=O)(=O)O)cc21 [IRDye800, reference compound]			Visualization of tumor in NIR image [1]: did not have detectable signal
Cy5.5-c(KRGDf; SEQ ID NO. 3) (peptide)		1110	

Continued, in another order:

Degradation in culture medium [2]	IC50 of inhibition of adhesion of KS1767 cells to vitronectin-coated microplate wells [3] [nM]	Compound	other results
no apparent degradation		CC(C)C[C@@H]1NC(=O)[C@H]([C@@H](C)O)NC(=O)[C@H](Cc2ccccc2)NC(=O)CNC(=O)[C@H](Cc2c[nH]c3ccccc23)NC(=O)[C@H](Cc2c[nH]cn2)NC(=O)[C@H]([C@@H](C)O)NC(=O)[C@H]([C@@H](C)O)NC(=O)[C@H](C)NC(=O)CCNC1=O [c(ATTHWGFTLβA; SEQ ID NO. 2)] (HELM PEPTIDE1{A.T.T.H.W.G.F.T.L.[bAla]}$PEPTIDE1,PEPTIDE1,1:R1-10:R2$$$V2.0; bridges inferred)	Degradation over the course of the study ([2]; 5 days): no degradation
degrades completely		CC(C)C[C@@H]1NC(=O)[C@H]([C@@H](C)O)NC(=O)[C@H](Cc2ccccc2)NC(=O)CNC(=O)[C@H](Cc2c[nH]c3ccccc23)NC(=O)[C@H](Cc2c[nH]cn2)NC(=O)[C@H]([C@@H](C)O)NC(=O)[C@H]([C@@H](C)O)NC(=O)[C@@H](N)CSSC[C@@H](C(N)=O)NC1=O [c(CTTHWGFTLC; SEQ ID NO. 1), reference compound] (HELM PEPTIDE1{C.T.T.H.W.G.F.T.L.C.[am]}$PEPTIDE1,PEPTIDE1,1:R3-10:R3$$$V2.0)	metabolised at 3 h, 1 mg/ml ([2]; serum-containing culture medium (DMEM/F-12 Ham with 10% FBS), after 3 hours, read-out: Peptide degraded): > 90%
	2470	cyclo(Lys-Arg-Gly-Asp-phe), c(KRGDf; SEQ ID NO. 3) (peptide)	
